Our source for the IC50 values is publication PMC546277 (Arthritis Research & Therapy, 2004).

The experiment deals with IGFBP-3 (recombinant human IGF-binding protein 3, rhIGFBP-3) (Homo sapiens, UniProt P17936).
Chain of IGFBP-3 (recombinant human IGF-binding protein 3, rhIGFBP-3) (P17936 28-291): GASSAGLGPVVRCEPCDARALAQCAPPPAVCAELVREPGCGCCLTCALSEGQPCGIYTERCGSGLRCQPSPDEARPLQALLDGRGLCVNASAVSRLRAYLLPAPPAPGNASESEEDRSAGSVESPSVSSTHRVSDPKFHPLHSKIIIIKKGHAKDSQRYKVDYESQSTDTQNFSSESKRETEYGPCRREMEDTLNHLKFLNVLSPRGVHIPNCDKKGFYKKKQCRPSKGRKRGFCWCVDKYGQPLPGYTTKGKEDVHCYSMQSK
Chain of IGFBP-3 (recombinant human IGF-binding protein 3, rhIGFBP-3) (P05019 49-118 partner): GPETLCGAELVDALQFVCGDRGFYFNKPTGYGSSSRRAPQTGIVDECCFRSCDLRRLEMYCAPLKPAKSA

By IC50 is commonly meant the concentration that inhibits the measured activity by half. As to `O=C(O)c1cc2cc(O)c(O)cc2c(C(=O)c2ccc(O)c(O)c2)n1` [NBI-31772, 1-(3,4-dihydroxybenzoyl)-3-hydroxycarbonyl-6,7-dihydroxyisoquinoline], the IC50 turned out to be 2 nM.
